Data reported in US5030647A, “Anti-inflammatory thienylbenzylamine compounds” (Boehringer Ingelheim Pharmaceuticals, Inc., priority 1990, dated 1991).
Structures can show the parent of a compound that is named as a salt. Where two headings read alike, the source gives them in different places.

What was measured:
paw swelling = assay: Reverse passive Arthus reaction, inhibition of paw swelling after oral dosing; assay type: in vivo; settings: rats; for inhibition in vivo at 30 mg/kg / inhibition in vivo at 10 mg/kg / inhibition in vivo at 100 mg/kg: Rattus norvegicus, po; for inhibition in vivo at 10 mg/kg: 10 mg/kg oral; for inhibition in vivo at 100 mg/kg: 100 mg/kg oral
Experimental: The reverse passive Arthus reaction is initiated by the interaction of antigen and antibody resulting in the formation of a precipitating immune complex, followed by fixation of complement, accumulation of leukocytes, edema and hemorrhage. The immunopathology of rheumatoid arthritis involves many of the parameters found in this reaction. Test groups (5 rats per group) are dosed orally with compounds one hour prior to the sub-plantar injection into the right hind paw of rabbit anti-ovalbumin antibody (50 μg/0.1 ml). Immediately afterwards, ovalbumin (Sigma, #5503) (5 mg/0.2 ml) is injected i.v. via the tail vein. The right hind paw volume is measured at hourly intervals, from one to four hours after the injection of the immune reactants. The change in paw volume for each animal is calculated by subtracting zero hour paw volume (before injection) from the paw volume at the time of measurement. The mean of these values is calculated for each group. Results are expressed in Table I below as percent inhibition of paw swelling compared to untreated controls.

human PMN = assay: Chemotaxis of human peripheral leukocytes (human PMN chemotaxis, FMLP as chemoattractant); assay type: cell-based; settings: Leukocyte, FMLP 1×10^-8 M; for inhibition at 1 µM: read-out: PERCENT INHIBITION (human PMN chemotaxis) 1 μM
Experimental: A) Equal parts of citrated peripheral venous blood drawn from a normal volunteer were mixed with saline containing 6% dextran. The mixture was allowed to sediment for 30-40 minutes in a 50 ml polypropylene centrifuge tube. B) The plasma was decanted and centrifuged at 1500 rpm for 7 minutes and washed with saline. C) The supernatant was decanted and the contaminating red blood cells were eliminated by adding ice cold lysing solution and allowing the cell suspension to stand on ice for 5 minutes. […] E) The tubes were centrifuged at 400g for 30 minutes at room temperature. F) The supernatant was decanted and the PMNs (pelleted on the bottom of the tubes) were washed with saline and with Hanks buffer. The cells were adjusted to a final concentration of 3×10^6 cells/ml in Hanks buffer containing 0.5% BSA. 1) Chemoattractant: serial dilution was prepared of the stocks (10^-3 M) N-Formyl-methionyl-leucylphenylalanine in Hanks buffer and 130 μl of 1×10^-8 M solution was pipetted into the lower bottom chamber. The bottom chamber of the negative control was filled with saline. 2) Placed Millipore membranes to completely cover the wells and allowed the liquid to absorb. 3) Placed on upper chamber and tighten retaining nuts. 1) Sample preparation: Mixed equal volume of sample diluted in Hanks buffer containing […] and cell suspension in a test tube prior to pipetting 200 μl into appropriate duplicate chambers. 2) Incubated chambers at 37° C. for 40-60 minutes. 10) Three to five fields per membrane were counted with the aid of the Image Analyser (optimal 40-10). Special effort was made to select a standard for evaluating the cell monolayer in which the distribution of cells in the field of view is uniform. The number of cells at each […] level beneath the selected monolayer was then counted and the chemotactic index (CI) calculated by multiplying the individual cell count at each level by their corresponding depth of penetration, and taking the sum of these numbers. 11) The results in Table II are recorded as percent inhibition. Percent inhibition by each thienylbenzylamime was calculated as follows: [formula] The CI of the control was determined by conducting the assay with N-formyl-methionyl-leucylphenylalanine (FMLP) alone without any thienlbenzylamine. The background was determined by conducting the assay without any FMLP.

[1] = 2 h, 30 mg/kg oral, 2 hours, read-out: % INHIBITION (of paw swelling) HOUR 2
[2] = 3 h, 30 mg/kg oral, 3 hours, read-out: % INHIBITION (of paw swelling) HOUR 3
[3] = 4 h, 30 mg/kg oral, 4 hours, read-out: % INHIBITION (of paw swelling) HOUR 4
[4] = 2 h, 2 hours, read-out: % INHIBITION (of paw swelling) HOUR 2
[5] = 3 h, 3 hours, read-out: % INHIBITION (of paw swelling) HOUR 3
[6] = 4 h, 4 hours, read-out: % INHIBITION (of paw swelling) HOUR 4

## CN(C)Cc1ccccc1C(O)c1csc(Cl)c1Cl (centres unmarked) [Compound 30, 4,5-dichloro-3-[(2-N,N-dimethylaminomethylphenyl)hydroxymethyl]thiophene hydrochloride]
Paw swelling; [1]
  inhibition in vivo at 30 mg/kg: 47%
Paw swelling; [2]
  inhibition in vivo at 30 mg/kg: 36%

## CN(C)Cc1ccccc1C(O)c1sccc1Cl (centres unmarked) [Compound 5, 3-chloro-2-[(2-dimethylaminomethylphenyl)hydroxymethyl]thiophene]
Paw swelling; [1]
  inhibition in vivo at 30 mg/kg: 35.6%
Paw swelling; [2]
  inhibition in vivo at 30 mg/kg: 13.6%
Paw swelling; [3]
  inhibition in vivo at 30 mg/kg: 32.3%
Human PMN
  inhibition at 1 µM: 34%
Human PMN; 0.01 μm, read-out: PERCENT INHIBITION (human PMN chemotaxis) 0.01 μm
  inhibition at 0.01 µM: 34%

## CN(C)Cc1ccccc1C(O)c1cc(Br)cs1 (centres unmarked) [Compound 18, 4-bromo-2-[(2-dimethylaminomethylphenyl)hydroxymethyl]thiophene]
Paw swelling; [1]
  inhibition in vivo at 30 mg/kg: 35%
Paw swelling; [2]
  inhibition in vivo at 30 mg/kg: 37%
Paw swelling; [3]
  inhibition in vivo at 30 mg/kg: 40%

## CN(C)Cc1ccccc1C(O)c1csc(Cl)c1 (centres unmarked) [Compound 24, 5-chloro-3-[(2-N,N-dimethylaminomethylphenyl)hydroxymethyl]thiophene hydrochloride]
Paw swelling; [1]
  inhibition in vivo at 30 mg/kg: 51%
Paw swelling; [2]
  inhibition in vivo at 30 mg/kg: 54%
Paw swelling; [3]
  inhibition in vivo at 30 mg/kg: 53%
Human PMN
  inhibition at 1 µM: 19%

## CN(C)Cc1ccccc1C(O)c1ccc(C2(C)OCCO2)s1 (centres unmarked) [Compound 19, 2-[(2-dimethylaminomethylphenyl)hydroxymethyl]-5-(1,1-ethylenedioxyethyl) thiophene]
Paw swelling; [1]
  inhibition in vivo at 30 mg/kg: 40%
Paw swelling; [2]
  inhibition in vivo at 30 mg/kg: 37%
Paw swelling; [3]
  inhibition in vivo at 30 mg/kg: 11%

## CN(C)Cc1ccc(C(O)c2ccccc2CN(C)C)s1 (centres unmarked) [Compound 10, 5-N,N-dimethylaminomethyl-2-[2-(N,N-dimethylaminomethylphenyl)hydroxymethyl]thiophene]
Paw swelling; [1]
  inhibition in vivo at 30 mg/kg: 55.6%
Paw swelling; [2]
  inhibition in vivo at 30 mg/kg: 21.6%
Paw swelling; [3]
  inhibition in vivo at 30 mg/kg: 19.4%

## CN(C)Cc1ccccc1C(O)c1ccc(Br)s1 (centres unmarked) [Compound 15]
Paw swelling; [1]
  inhibition in vivo at 30 mg/kg: 63.1%
Paw swelling; [2]
  inhibition in vivo at 30 mg/kg: 47.1%
Paw swelling; [3]
  inhibition in vivo at 30 mg/kg: 26.7%

## CC(c1ccccc1C(O)c1ccc(Cl)s1)N(C)C (centres unmarked) [Compound 36, 5-chloro-2-[2-(1-N,N-dimethylaminoethylphenyl)hydroxymethyl]thiophene hydrochloride]
Paw swelling; [1]
  inhibition in vivo at 30 mg/kg: 52%
Paw swelling; [2]
  inhibition in vivo at 30 mg/kg: 15%
Paw swelling; [3]
  inhibition in vivo at 30 mg/kg: 3%

## CN(C)Cc1ccccc1C(C)(O)c1ccc(Br)s1 (centres unmarked) [Compound 34, N,N-dimethyl-2-[1-(5-bromothien-2-yl)-1-hydroxyethyl]benzylamine]
Paw swelling; [1]
  inhibition in vivo at 30 mg/kg: 66%
Paw swelling; [2]
  inhibition in vivo at 30 mg/kg: 49%
Paw swelling; [3]
  inhibition in vivo at 30 mg/kg: 14%

## CN(C)Cc1ccccc1C(O)c1sc(Cl)cc1Cl (centres unmarked) [Compound 32, 3,5-dichloro-2-[(N,N-dimethylaminomethylphenyl)hydroxymethyl]thiophene hydrochloride]
Paw swelling; [1]
  inhibition in vivo at 30 mg/kg: 62%
Paw swelling; [2]
  inhibition in vivo at 30 mg/kg: 47%
Paw swelling; [3]
  inhibition in vivo at 30 mg/kg: 12%

## CN(C)Cc1ccccc1C(O)c1scc(Br)c1Br (centres unmarked) [Compound 27, 3,4-dibromo-2-[(2-N,N-dimethylaminomethylphenyl)hydroxymethyl]thiophene hydrochloride]
Paw swelling; [1]
  inhibition in vivo at 30 mg/kg: 39%
Paw swelling; [2]
  inhibition in vivo at 30 mg/kg: 25%
Paw swelling; [3]
  inhibition in vivo at 30 mg/kg: 10%

## CN(C)Cc1ccccc1C(O)c1csc(I)c1 (centres unmarked) [Compound 28, 5-iodo-3-[(2-N,N-dimethylaminomethylphenyl)hydroxymethyl]thiophene hydrochloride]
Paw swelling; [1]
  inhibition in vivo at 30 mg/kg: 21%
Paw swelling; [2]
  inhibition in vivo at 30 mg/kg: 0%
Paw swelling; [3]
  inhibition in vivo at 30 mg/kg: 13%

## CC(c1ccccc1C(O)c1csc(Br)c1)N(C)C (centres unmarked) [Compound 35, 5-bromo-3-[2-(1-N,N-dimethylaminoethylphenyl)hydroxymethyl]thiophene]
Paw swelling; [1]
  inhibition in vivo at 30 mg/kg: 58%
Paw swelling; [2]
  inhibition in vivo at 30 mg/kg: 48%
Paw swelling; [3]
  inhibition in vivo at 30 mg/kg: 9%

## CN(C)Cc1ccccc1C(O)c1sccc1Br (centres unmarked) [Compound 17, 3-bromo-2-[(2-dimethylaminomethylphenyl)hydroxymethyl]thiophene monofumarate]
Paw swelling; [1]
  inhibition in vivo at 30 mg/kg: 49%
Paw swelling; [2]
  inhibition in vivo at 30 mg/kg: 5%
Paw swelling; [3]
  inhibition in vivo at 30 mg/kg: 0%

## CN(C)Cc1ccccc1C(=O)c1ccsc1 [Compound 37, 3-[2-(2-N,N-dimethylaminomethylphenyl)carbonyl]thiophene]
Paw swelling; [1]
  inhibition in vivo at 30 mg/kg: 0%
Paw swelling; [2]
  inhibition in vivo at 30 mg/kg: 0%
Paw swelling; [3]
  inhibition in vivo at 30 mg/kg: 0%

## CN(C)Cc1ccccc1C(O)c1ccc(Cl)s1 (centres unmarked) [Compound 1, 5-chloro-2-[(2-dimethylaminomethylphenyl)hydroxymethyl]thiophene]
Paw swelling; [4]
  inhibition in vivo at 10 mg/kg: 54%
  inhibition in vivo at 100 mg/kg: 87.5%
Paw swelling; [5]
  inhibition in vivo at 10 mg/kg: 23.1%
  inhibition in vivo at 100 mg/kg: 71.5%
Paw swelling; [6]
  inhibition in vivo at 10 mg/kg: 17.1%
  inhibition in vivo at 100 mg/kg: 67.8%

## CN(C)Cc1ccccc1C(O)c1ccc(Cl)s1.O=C(O)/C=C/C(=O)O (centres unmarked) [Compound 16, 5-chloro-2-[-(2-dimethylaminomethylphenyl)-1-hydroxymethyl]thiophene monofumarate]
Paw swelling; 30 mg/kg oral, 2 hours
  % INHIBITION (of paw swelling) HOUR 2: 17%
Paw swelling; 30 mg/kg oral, 3 hours
  % INHIBITION (of paw swelling) HOUR 3: 11%
Paw swelling; 30 mg/kg oral, 4 hours
  % INHIBITION (of paw swelling) HOUR 4: 0%

## CN(C)Cc1ccccc1C(O)c1cc(I)sc1I (centres unmarked) [Compound 29, 2,5-diiodo-3-[(2-N,N-dimethylaminomethylphenyl)hydroxymethyl]thiophene hydrochloride]
Paw swelling; [1]
  inhibition in vivo at 30 mg/kg: 50%
Paw swelling; [2]
  inhibition in vivo at 30 mg/kg: 29%
Paw swelling; [3]
  inhibition in vivo at 30 mg/kg: 0%

## CN(C)Cc1ccccc1C(O)c1cscc1Br (centres unmarked) [Compound 26, 4-bromo-3-[(2-N,N-dimethylaminomethylphenyl)hydroxymethyl]thiophene hydrochloride]
Paw swelling; [1]
  inhibition in vivo at 30 mg/kg: 42%
Paw swelling; [2]
  inhibition in vivo at 30 mg/kg: 25%
Paw swelling; [3]
  inhibition in vivo at 30 mg/kg: 6%

## CN(C)Cc1ccccc1C(O)c1c(Cl)sc(Cl)c1Cl (centres unmarked) [Compound 31, 2,4,5-Trichloro-3-[(2-N,N-dimethylaminomethylphenyl)hydroxymethyl]thiophene hydrochloride]
Paw swelling; [1]
  inhibition in vivo at 30 mg/kg: 44%
Paw swelling; [2]
  inhibition in vivo at 30 mg/kg: 32%
Paw swelling; [3]
  inhibition in vivo at 30 mg/kg: 0%

## Cc1cc(Cl)sc1C(O)c1ccccc1CN(C)C (centres unmarked) [Compound 13, 5-chloro-2-[(dimethylaminomethylphenyl)hydroxymethyl]-3-methylthiophene]
Paw swelling; [1]
  inhibition in vivo at 30 mg/kg: 66.8%
Paw swelling; [4]
  inhibition in vivo at 100 mg/kg: 51.7%
Paw swelling; [2]
  inhibition in vivo at 30 mg/kg: 24.1%
Paw swelling; [5]
  inhibition in vivo at 100 mg/kg: 28.6%
Paw swelling; [3]
  inhibition in vivo at 30 mg/kg: 7.3%
Paw swelling; [6]
  inhibition in vivo at 100 mg/kg: 3.3%

## CN(C)Cc1ccccc1C(O)c1cc(Cl)sc1Cl (centres unmarked) [Compound 25, 2,5-dichloro-3[(2-N,N-dimethylaminomethylphenyl)hydroxymethyl]thiophene hydrochloride]
Paw swelling; [1]
  inhibition in vivo at 30 mg/kg: 68%
Paw swelling; [2]
  inhibition in vivo at 30 mg/kg: 64%
Paw swelling; [3]
  inhibition in vivo at 30 mg/kg: 38%

## CC(=O)c1ccc(C(O)c2ccccc2CN(C)C)s1 (centres unmarked) [Compound 20, 5-acetyl-2-[(2-dimethylaminomethylphenyl)hydroxymethyl]thiophene]
Paw swelling; [1]
  inhibition in vivo at 30 mg/kg: 12%
Paw swelling; [2]
  inhibition in vivo at 30 mg/kg: 15%
Paw swelling; [3]
  inhibition in vivo at 30 mg/kg: 2%
